Earlier results as cited in US20180298405A1, “METHODS AND COMPOSITIONS TO INCREASE HUMAN SOMATIC CELL NUCLEAR TRANSFER (SCNT) EFFICIENCY BY REMOVING HISTONE H3-LYSINE TRIMETHYLATION, AND DERIVATION OF HUMAN NT-ESC” (CHILDREN'S MEDICAL CENTER CORPORATION, priority 2015, published 2018).

Test system: SETDB1 H3K9me3 HMTase; H3K27me3 and H3K9me3
Settings: Lee et al., 2013; cited from earlier work

Q: What does the source list for `Nc1nccc2c1ncn2[C@@H]1C=C(CO)[C@@H](O)[C@H]1O` [3-Deazaneplanocin A]?
A: effect on H3K27me3 and H3K9me3 levels: reduced levels of both H3K27me3 and H3K9me3; effect on SETDB1 H3K9me3 HMTase: decrease of SETDB1 H3K9me3 HMTase
